Test results: patent US20130172324A1, “METHOD FOR TREATING CARDIOVASCULAR DISEASES USING RHO KINASE INHIBITOR COMPOUNDS” (priority 2008, published 2013)
Where two headings read alike, the source gives them in different places. Each block holds one compound with its values, some of them ahead of it.

Experiments:
[1] = system: rat trachea rings; assay: Tracheal relaxation assay (carbachol precontracted rings); conditions: for Percentage of carbachol-induced contraction at 1 μM compound, Avg % / Percentage of carbachol-induced contraction at 10 μM compound, Avg %: 1 μM carbachol; for IC50: read-out: IC50 Avg; for Trachael Ring Contraction, %: average percentage of carbachol-induced rat tracheal ring contraction at 1 μM of test compound;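 for all read-outs here: isometric tension of rat tracheal rings in Krebs buffer with 1 µM indomethacin, compounds added cumulatively at 30 min intervals, basal tension subtracted, fit to Hill equation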
[2] = Rat oral pharmacokinetics (plasma); assay type: in vivo
Procedure: Plasma (EDTA K2 anticoagulant) was collected from male, cannulated, CD Sprague Dawley rats to determine the pharmacokinetics of formulations containing compound inhibitors of Rho kinase. Each animal was dosed orally with a 4 ml/kg solution or suspension of each test compound in 10 mM acetate buffered saline, pH 4.5 at a final concentration range of 20-30 μmol/kg. Blood was collected at 0.25, 0.5, 1, 2, 4, 6, 8, and 24 hours. Plasma samples were assayed for the concentration of the test compound using an on-line, solid phase extraction LC/MS/MS analysis system.
Samples were analyzed on a QSTAR Elite, hybrid quadrupole time-of-flight mass spectrometer (Applied Biosystems, Framingham, Mass.) coupled with a Symbiosis Pharma integrated, on-line SPE-HPLC system (Spark Holland Inc., Plainsboro, N.J.). Analyst QS 2.0 software was used for instrument control, data acquisition and processing. […] Mobile Phase A consisted of 0.1% ammonium hydroxide in water and Mobile Phase B consisted of 0.1% formic acid in acetonitrile. Pharmacokinetic analyses were performed using WinNonlin software version 5.2 (Pharsight Corporation, Mountain View, Calif.).
As determined from the plasma concentration versus time curves, the time to peak and peak exposure are represented by the values Tmax and Cmax, respectively. The AUC values (nM*hr) shown were calculated as the areas under the plasma concentration versus time curves from time zero through the time of the last observable value and represent the total exposure of the compound over the course of the study. Half-life values or the amount of time required for the plasma levels of the compound to decline to half the initial value are represented as t1/2.

[3] = system: ova-sensitized, ova-challenged mice; assay: Bronchodilator assay in ovalbumin-sensitized mice (Penh, methacholine); assay type: in vivo, mouse; conditions: for log10AUC (penh): bronchodilator dosing paradigm
Procedure: Male BALB/c mice were ordered from Charles River Laboratories (Raleigh, N.C.). The animals were approximately 19 to 21 grams at time of receipt. Upon arrival, the animals were randomized into groups of five males per cage and assigned to a dosing group. Animals were quarantined for 7 days under test conditions. They were observed daily for general health status and ability to adapt to the water bottles.
Animals were sensitized on day 0 and 14 of study by an intraperitoneal injection with 20 μg of ovalbumin (ova) and 2.0 mg aluminum hydroxide (alum) which initiates the development of a specific T-helper (Th) cells type 2 resulting in asthmatic animals. One group of animals received an injection of saline to use as non-asthmatic control animals. All animals were challenged with aerosolized 1% ova once daily for 25 minutes on days 28, 29, and 30 (Zosky, et al. Respiratory Research. 2004; 5:15). Aerosol challenge consists of using an Aerogen Aeroneb nebulizer and controller with a particle size of 4-6 μm mass median aerodynamic diameter (MMAD) with a distribution of 400 μl per minute. This aerosol challenge is necessary to target the Th2-driven allergic inflammation in the lower airways.
The test compounds and the control vehicle were administered to animals on the day of airway hyperreactivity evaluation 30 minutes to 1 hour before the evaluation to determine the bronchodilator effects of the compounds according to the bronchodilator dosing paradigm (FIG. 8). Compounds were administered p.o. (orally), i.p. (intraperitoneally) at 15 μMol/kg unless otherwise noted (Table 6). Alternatively, compounds were administered i.t. (intratracheally) at varying doses as shown (FIG. 9). On day 32 of the experiment, airway hyperreactivity was evaluated by placing conscious, unrestrained animals in a whole body plethysmometer (Buxco Wilmington, N.C.) and exposing them to escalating doses of nebulized methacholine, a known bronchial constrictor which acts through the muscarinic receptors of the lungs, (doses: 0.325-50 mg/ml). Exposure to the methacholine doses consisted of a 3 minute period during which a nebulizer was aerosolizing the methacholine and an additional 3 minute period following the cessation of nebulization. Over this 6 minute period, the plethysmometer monitors and generates numerical values for all parameters of the breath pattern. Enhanced pause (Penh), a unitless index of airway hyperreactivity, is derived from the expiratory side of the respiratory waveform measured via the plethysmograph and is used as an indirect measure of airway resistance and hyperreactivity. […] Following the methacholine dose response, all animals were anesthetized, bled and euthanized.
Within each experiment, a mouse was given a single compound and exposed to increasing doses of methacholine [0 (baseline), 0.375, 0.75, 1.5, 3, 6, 12, 25, 50 mg/ml]. The Penh value at each of the dose levels of methacholine represents the 6-minute average response. Change from baseline (CFB) in Penh was calculated at each methacholine dose and the area under the curve (AUC) for these CFB values was calculated using the trapezoidal rule. This same approach was applied for each mouse across multiple experiments.
For statistical analyses, a linear mixed-effects model where the response was the log 10 transformed value of AUC described above was used. Data from equal experimental conditions across experiments performed on different days were pooled for statistical analysis and data reporting. The various compounds were compared adjusting for the log 10-transformed baseline value of Penh and the chamber (1 of 10) of the plethysmometer each mouse was contained in during an experiment. A random intercept for each experiment was assumed to account for possible similarities of the results obtained from a given experiment (i.e., as a “blocking effect”). […] Computations were performed using PROC MIXED (SAS Version 9.1). […]

[4] = system: ova-sensitized, ova-challenged mice; assay: In vivo anti-inflammatory assay in ovalbumin-sensitized mice (BALF eosinophils and cytokines); set-up: species or system mouse; conditions: dosed orally to day 31, anti-inflammatory dosing paradigm; FIG. 11
Text: A mouse model of asthma via ovalbumin sensitization was created as described in Example 23. The anti-inflammatory dosing paradigm (FIG. 10) was utilized to evaluate the anti-inflammatory effects of experimental compounds. The anti-inflammatory dosing paradigm consists of dosing the animals once a day starting on day 27 and finishing on either day 30 or 31 (1 hr prior to the aerosolized ovalbumin challenges on days 28 to 30) but not on day 32 when hyperreactivity evaluation occurs.
Bronchoalveolar lavage fluid (BALF) was collected by infusing 3.0 ml of saline with 10% fetal calf serum into the lungs via the trachea and then withdrawing the fluid. The total amount of cells/ml of BALF fluid was determined via manual cell count on hemocytometer. The BALF was centrifuged, supernatant removed and analyzed for cytokine concentrations as described below, and cell pellet reconstituted in 500 μL of fluid. Cytospin slides were prepared from the cell pellet using 100 μL of fluid and spinning samples for 5 minutes at 5000 rpms in a cytospin centrifuge. Following Hema3 stain, relative percentages of individual leukocytes were determined on a 200 cell count for each sample. The final concentration of individual leukocyte cell types per ml of BALF was determined by multiplication of the relative percentage of individual leukocytes with the total amount of cells/ml of BALF fluid.
The concentrations of cytokines in the BALF samples were determined using commercially available Bio-plex kits (Bio-Rad) for the detection of mouse IL-5, IL-13, and Eotaxin. The analysis of cytokine levels was measured using the Bio-Plex 200 (Bio-Rad) system according to the manufacturer's instructions.

[5] = system: ova-sensitized, ova-challenged mice; assay: Prevention of airway hyperreactivity development, anti-inflammatory dosing paradigm (Penh); assay type: in vivo, mouse; conditions: for airway hyperreactivity: intratracheal once a day, days 27 to 30 (1.091) or 27 to 31
[6] = biological target: T1, ERK2 (Homo sapiens, UniProt P28482); assay: Kinase panel screen (KinaseProfiler), ERK2; assay type: biochemical; conditions: 10 μM ATP
T1 construct: purchased Upstate, Millipore Bioscience Division (KinaseProfiler service)
Procedure: (§1) Compounds of Formulae I and II were examined for activity against a selected panel of kinases using the KinaseProfiler™ enzyme profiling services (Upstate, Millipore Bioscience Division). Percent kinase activity at 10 μM and 1 μM test compound and 10 μM ATP was determined against 40 wild-type recombinant human kinases according to Upstate's standard protocol: ASK1, BTK, CSK, c-RAF, GCK, GSK3β, IKKα, IKKβ, IRAK1, IRAK4, JNK1α1, JNK2α2, JNK3, ERK1, ERK2, MAPKAP-K2, MAPKAP-K3, MEK1, MKK4, MKK6, MKK7β, Mnk2, MSK1, PAK3, PDK1, PRAK, ROCK1, Rsk2, SAPK2a, SAPK2b, SAPK3, SAPK4, SRPK1, SRPK2, Syk, TAK1, TBK1, PI3-Kβ, PI3-Kγ, PI3-Kδ.

[7] = biological target: T2, ERK1 (Homo sapiens, UniProt P27361); assay: Kinase panel screen (KinaseProfiler), ERK1; assay type: biochemical; conditions: 10 μM ATP
T2 construct: purchased Upstate, Millipore Bioscience Division (KinaseProfiler service)
Procedure: as §1

[8] = system: cytokine secretion from LPS-stimulated human monocytes; assay: Human monocyte cytokine secretion assay (LPS); assay type: cell-based
Procedure: Peripheral blood from healthy human volunteers was collected and the monocytes isolated via Ficoll-paque density centrifugation. […] The cells were allowed to pre-incubate with test compound at the indicated concentration for 30 minutes (37° C., 5% CO2, humidified air); after which the supernatant was removed and media containing compound and 1 ng/mL LPS was added. Cells were allowed to incubate with compounds and LPS for 4 hours at 37° C. after which the supernatant was removed and stored at −80° C. Cytokine concentrations in the supernatant were determined using commercially available Bio-Rad Bio-plex™ kits according the manufacturer's instructions.

[9] = rat, oral, 20-30 μmol/kg, plasma, mean of n = 3

T1 sequence (P28482 whole entry): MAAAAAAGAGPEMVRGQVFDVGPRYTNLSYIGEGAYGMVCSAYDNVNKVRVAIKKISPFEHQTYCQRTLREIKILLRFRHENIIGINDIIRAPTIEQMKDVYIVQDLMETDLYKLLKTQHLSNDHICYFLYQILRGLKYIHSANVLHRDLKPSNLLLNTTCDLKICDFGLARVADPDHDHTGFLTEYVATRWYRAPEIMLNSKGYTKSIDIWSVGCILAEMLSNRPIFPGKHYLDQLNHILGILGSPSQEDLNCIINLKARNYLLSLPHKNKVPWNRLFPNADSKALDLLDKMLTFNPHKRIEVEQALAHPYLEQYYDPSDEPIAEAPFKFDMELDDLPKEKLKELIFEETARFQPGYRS
T2 sequence (P27361 whole entry): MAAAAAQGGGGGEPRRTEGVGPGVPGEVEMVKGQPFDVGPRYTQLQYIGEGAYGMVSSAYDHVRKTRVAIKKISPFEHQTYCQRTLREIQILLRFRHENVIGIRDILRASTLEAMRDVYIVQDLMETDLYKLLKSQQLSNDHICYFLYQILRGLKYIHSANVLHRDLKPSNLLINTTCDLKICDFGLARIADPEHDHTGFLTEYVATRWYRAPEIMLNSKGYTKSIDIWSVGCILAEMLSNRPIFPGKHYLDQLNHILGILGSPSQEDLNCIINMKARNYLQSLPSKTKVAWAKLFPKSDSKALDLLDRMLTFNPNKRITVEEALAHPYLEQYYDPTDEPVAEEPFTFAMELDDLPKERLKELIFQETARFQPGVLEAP

Structure (SMILES): OCCOc1cccc(CN2CCC[C@@H](Nc3ccc4[nH]ncc4c3)C2)c1 [Compound 1.092, (R)-2-(3-((3-(1H-indazol-5-ylamino)piperidin-1-yl)methyl)phenoxy)ethanol]
Percentage of carbachol-induced contraction at 1 μM compound, Avg % [1]: 67.7%
Percentage of carbachol-induced contraction at 10 μM compound, Avg % [1]: −2.9%
IC50 ([1]; Rattus norvegicus): 453 nM
Vz_F [2, 9]: 19.0 L/kg

Structure (SMILES): c1cc2cc(CN3CCC[C@@H](Nc4ccc5[nH]ncc5c4)C3)ccc2o1 [Compound 1.131, (R)-N-(1-(benzofuran-5-ylmethyl)piperidin-3-yl)-1H-indazol-5-amine]
Percentage of carbachol-induced contraction at 1 μM compound, Avg % [1]: 37.4%
Percentage of carbachol-induced contraction at 10 μM compound, Avg % [1]: 14.2%
IC50 ([1]; Rattus norvegicus): 243 nM
Trachael Ring Contraction, % [1]: 37%
log10AUC (penh) ([3]; 15 μmol/kg oral): 2.0283
reduction in airway hyperresponsiveness ([3]; oral doses): statistically significant reduction
eosinophils per ml of BALF (airway eosinophil infiltration) [4]: reduced
airway hyperreactivity to methacholine ([5]; oral 15 μMol/kg once a day during days 27 to 31, methacholine on Day 32): prevention of airway hyperreactivity
plasma and lung tissue concentrations after oral dosing ([2]; oral dosing, refers to Table 13 and Table 15): high plasma and lung tissue concentrations

Structure (SMILES): CCc1ccc(CN2CCC[C@@H](Nc3ccc4[nH]ncc4c3)C2)cc1 [Compound 1.136, (R)-N-(1-(4-ethylbenzyl)piperidin-3-yl)-1H-indazol-5-amine]
Percentage of carbachol-induced contraction at 1 μM compound, Avg % [1]: 45.0%
Percentage of carbachol-induced contraction at 10 μM compound, Avg % [1]: 19.7%
IC50 ([1]; Rattus norvegicus): 861 nM
Trachael Ring Contraction, % [1]: 45%
log10AUC (penh) ([3]; 15 μmol/kg intraperitoneal): 2.1379
log10AUC (penh) ([3]; 15 μmol/kg oral): 2.2490
reduction in airway hyperresponsiveness ([3]; i.p. route, compared to oral dosing): enhanced reduction
reduction in airway hyperresponsiveness ([3]; oral doses): did not yield a significant reduction
oral bioavailability ([2]; oral dosing): poor oral bioavailability
AUC (0-last) [2, 9]: BLQ
Cmax [2, 9]: BLQ
Tmax [2, 9]: BLQ
Vz_F [2, 9]: BLQ
t½ [2, 9]: BLQ

Structure (SMILES): Cc1ccc(CN2CCC[C@@H](Nc3ccc4[nH]ncc4c3)C2)cc1OCCO [Compound 1.161, (R)-2-(5-((3-(1H-indazol-5-ylamino)piperidin-1-yl)methyl)-2-methylphenoxy)ethanol]
Percentage of carbachol-induced contraction at 1 μM compound, Avg % [1]: 40.3%
Trachael Ring Contraction, % [1]: 40%
log10AUC (penh) ([3]; 15 μmol/kg intraperitoneal): 1.9042
airway hyperreactivity [5]: prevention of airway hyperreactivity
Percent inhibition, ERK2 ([6]; 1 μM test compound): 104%
Percent inhibition, ERK2 ([6]; 10 μM test compound): 92%

Structure (SMILES): NC(=O)Cn1ccc2cc(CN3CCC[C@@H](Nc4ccc5[nH]ncc5c4)C3)ccc21 [Compound 1.162, (R)-2-(5-((3-(1H-indazol-5-ylamino)piperidin-1-yl)methyl)-1H-indol-1-yl)acetamide]
Percentage of carbachol-induced contraction at 1 μM compound, Avg % [1]: 34.4%
Trachael Ring Contraction, % [1]: 34%
log10AUC (penh) ([3]; 15 μmol/kg intraperitoneal): 1.7001
Percent inhibition, ERK1 ([7]; 1 μM test compound): 84%
Percent inhibition, ERK1 ([7]; 10 μM test compound): 50%
Percent inhibition, ERK2 ([6]; 1 μM test compound): 89%
Percent inhibition, ERK2 ([6]; 10 μM test compound): 60%

Structure (SMILES): NS(=O)(=O)c1cccc(CN2CCC[C@H](Nc3ccc4[nH]ncc4c3)C2)c1 [Compound 1.215, (S)-3-((3-(1H-indazol-5-ylamino)piperidin-1-yl)methyl)benzenesulfonamide]
Percentage of carbachol-induced contraction at 1 μM compound, Avg % [1]: 40.6%
Trachael Ring Contraction, % [1]: 41%
log10AUC (penh) ([3]; 15 μmol/kg intraperitoneal): 2.0081

Structure (SMILES): NCc1cccc(CN2CCC[C@@H](Nc3ccc4[nH]ncc4c3)C2)c1 [Compound 1.235, (R)-N-(1-(3-(aminomethyl)benzyl)piperidin-3-yl)-1H-indazol-5-amine]
log10AUC (penh) ([3]; 15 μmol/kg intraperitoneal): 1.9362

Structure (SMILES): Cc1ccc(CN2CC[C@@H](Nc3cccc4cnccc34)C2)cc1 [Compound 2.025, (R)-N-(1-(4-methylbenzyl)pyrrolidin-3-yl)isoquinolin-5-amine]
Percentage of carbachol-induced contraction at 1 μM compound, Avg % [1]: 33.3%
Trachael Ring Contraction, % [1]: 33%
log10AUC (penh) ([3]; 15 μmol/kg intraperitoneal): 1.9667

Structure (SMILES): Cc1ccc(CN2CC[C@@H](Nc3cccc4cnccc34)C2)cc1OCCO [Compound 2.064, (R)-2-(5-((3-(isoquinolin-5-ylamino)pyrrolidin-1-yl)methyl)-2-methylphenoxy)ethanol]
IL-1β % ([8]; 4 h, 10 µM): 14.3%
IL-6, % ([8]; 4 h, 10 µM): 45.7%
TNF-α % ([8]; 4 h, 10 µM): 66.2%
IL-1β % ([8]; average percent of stimulated IL-1β secretion from human monocytes at 10 μM of test compound): 14.3%
IL-6, % ([8]; average percent of stimulated IL-6 secretion from human monocytes at 10 μM of test compound): 45.7%
TNF-α % ([8]; average percent of stimulated TNF-α secretion from human monocytes at 10 μM of test compound): 66.2%

Percent inhibition, ERK1 ([7]; 1 μM test compound): 52%
Percent inhibition, ERK1 ([7]; 10 μM test compound): 15%
Percent inhibition, ERK2 ([6]; 1 μM test compound): 50%
Percent inhibition, ERK2 ([6]; 10 μM test compound): 12%
Structure (SMILES): OCCn1ccc2cc(CN3CC[C@@H](Nc4cccc5cnccc45)C3)ccc21 [Compound 2.066, (R)-2-(5-((3-(isoquinolin-5-ylamino)pyrrolidin-1-yl)methyl)-1H-indol-1-yl)ethanol]
airway hyperreactivity [5]: prevention of airway hyperreactivity

IC50 ([1]; relaxation of 1 μM carbachol precontracted rat tracheal rings): 4780 nM
Structure (SMILES): C[C@@H](N)[C@H]1CC[C@H](C(=O)Nc2ccncc2)CC1 [Compound Y-27632, reference compound]
Percentage of carbachol-induced contraction at 1 μM compound, Avg % [1]: 83.7%
Percentage of carbachol-induced contraction at 10 μM compound, Avg % [1]: 23.4%
log10AUC (penh) ([3]; 30 μmol/kg oral): 2.0135
